From ChEMBL document CHEMBL1128694, “Specific inhibition of poly(ADP-ribose) glycohydrolase by adenosine diphosphate (hydroxymethyl)pyrrolidinediol” (J Med Chem, 1995)

Assays:
Settings in all cases: Meleagris gallopavo
[1] = target: T1, ADP-ribosyltransferase (Homo sapiens) (UniProt P52961); test: Inhibition of ADP-ribosyltransferase 1 that catalyze ADP-ribosyltransferase was measured at 0 uM concentration
T1 sequence (whole entry): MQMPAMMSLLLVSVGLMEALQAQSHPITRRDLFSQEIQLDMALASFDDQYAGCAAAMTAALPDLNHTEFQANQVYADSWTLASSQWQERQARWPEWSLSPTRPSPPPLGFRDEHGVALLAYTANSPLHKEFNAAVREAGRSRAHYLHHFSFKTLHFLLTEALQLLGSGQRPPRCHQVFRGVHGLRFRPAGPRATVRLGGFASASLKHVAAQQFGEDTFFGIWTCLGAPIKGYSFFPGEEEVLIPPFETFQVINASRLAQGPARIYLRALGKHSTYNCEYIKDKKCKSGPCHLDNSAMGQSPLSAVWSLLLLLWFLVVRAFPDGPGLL

[2] = target: T1, ADP-ribosyltransferase (Homo sapiens); test: Inhibition of ADP-ribosyltransferase 1 that catalyze ADP-ribosyltransferase was measured at 1000 uM concentration
[3] = target: T1, ADP-ribosyltransferase (Homo sapiens); test: Inhibition of ADP-ribosyltransferase 1 that catalyze ADP-ribosyltransferase was measured at 100 uM concentration

Question: `Nc1ncnc2c1ncn2[C@@H]1O[C@H](COP(=O)(O)OP(=O)(O)OC[C@H]2NC[C@H](O)[C@@H]2O)[C@@H](O)[C@H]1O` was tested. Which Activity [1] did it give?
Answer: 0.06 units/assay

Question: What about the Activity [2] of the same compound?
Answer: 0.05 units/assay

Question: What about the Activity [3] of the same compound?
Answer: 0.07 units/assay
